The values that follow come from PubChem BioAssay AID179 (DTP/NCI, 2004).

The subject of the assay is CEM cells HIV-1 protection, formazan growth assay. In words: NCI AIDS Antiviral Assay. Particulars: for IC50: measured here: growth of uninfected CEM cells. In outline:
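Human CEM cells, uninfected and HIV-1-infected, exposed to five drug concentrations; growth measured by soluble formazan assay and scored as percent protection from infection, with protecting compounds retested.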

SMILES strings stand for the structures. Activity calls are given as the source filed them.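 The calls were made as follows: active = compounds giving half or more protection of infected cells from virus-caused growth loss, again on retest; inactive = the rest.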 A value given as a limit tells only on which side of the number the result lay.

One may read the EC50 as the concentration needed to bring the measured effect to its halfway point. Broadly, the IC50 is the concentration at which inhibition is half-maximal. In the case of `CC(=O)NC1=C(C)C(=O)c2c(nc3n2CCC3OC(=O)CCl)C1=O` (stereo not drawn), the EC50 was above 200 µM and the IC50 worked out at 1.48 µM.

For `O=C1C(c2c[nH]c3ccccc23)=Nc2ccc(Br)cc21`, the EC50 was above 20 µM and the IC50 is 5.89 µM.

Turning to `Cc1ccc(SSC(=S)Nc2ccccc2)cc1`, the outcome was inactive.

Regarding `Clc1ccc(Nc2nc3ccccc3nc2-c2cccs2)cc1Cl`, the EC50 was above 14.1 µM and the half-inhibitory concentration (IC50) is above 14.1 µM.

Turning to `Cc1ccccc1C1OC1C(=O)c1ccccc1N` (stereo not drawn), the EC50 is above 200 µM and the IC50 worked out at 46.8 µM.

With `O=C(c1ccccc1)c1oc2ccc(Br)cc2c1-c1cnn(-c2ccccc2)c1`, the result was inactive.

For the molecule `CC[C@@H]1C[C@@H]2CN3CCc4c([nH]c5ccc(OC)cc45)C(COC(=O)c4ccc(OC)c(OC)c4)(C2)C13`, the outcome was inactive.

On to `Oc1ccccc1C=NCCSSCCN=Cc1ccccc1O`, for which the result was inactive.

`CCn1ncc2c(=O)n3ncn(-c4ccc(Br)cc4)c3nc21`: the result was inactive.

In the case of `CNc1ccc(S(=O)Nc2ccccc2)cc1` (stereo not drawn), the EC50 was above 200 µM and the IC50 turned out to be 93.3 µM.

Take `CCN(CC)CCSc1nc2c([N+](=O)[O-])cccc2[nH]1`: the outcome was inactive.

As to `CC1OC(n2cc(F)c(=O)[nH]c2=O)CCC1O` (stereo not drawn), the EC50 is above 1020 µM and the IC50 is above 200 µM.

Turning to `COc1cc(CCCl)c(CC2=NCCc3cc(OC)c(OC)cc32)cc1OC`, the EC50 was above 200 µM and the IC50 was 31.6 µM.

As to `CCOC(=O)c1sc2[n+](c1C)C(=O)/C(=C/c1cc(OC)c(OC)c(OC)c1)S2`, the EC50 is above 200 µM and the IC50 is 12.9 µM.

With `Cc1ccc(N2CC(O)CSC2=Nc2ccccc2)cc1` (stereo not drawn), the EC50 was above 112 µM and the IC50 amounted to 46.8 µM.

With `O=C(O)CCCC#CCCCC(=O)O`, the EC50 is above 200 µM and the IC50 is above 200 µM.

In the case of `COc1cc2c(cc1O)C(Cc1ccc(Oc3cc(CC4c5cc(O)c(OC)cc5CCN4C)ccc3O)cc1)N(C)CC2` (stereo not drawn), the outcome was inactive.

On to `O=[N+]([O-])c1ccccc1Nc1ccccc1[N+](=O)[O-]`, for which the EC50 is above 52.5 µM and the IC50 was above 52.5 µM.

Turning to `COc1ccc(N/N=C(\CCN(C)C)c2ccccc2)cc1`, the outcome was inactive.

In the case of `CC(=O)OC1COC(n2c(=S)n(-c3ccccc3)c(=O)c3cc(Br)ccc32)C(OC(C)=O)C1OC(C)=O` (stereo not drawn), the EC50 was above 17 µM and the IC50 was above 17 µM.

For `CCOC(=O)c1c(N)n(-c2ccccc2)c(=S)n(-c2ccccc2)c1=O`, the EC50 was above 178 µM and the IC50 is above 178 µM.

As for `O=c1[nH]cc(CN2CCOCC2)c(=O)[nH]1`, the EC50 was above 617 µM and the IC50 was above 617 µM.

On to `CNC(=S)/N=C(\N)N(C)C`, for which the result was inactive.

On to `COc1ccc2c3c([nH]c2c1[N+](=O)[O-])C(C)N(C(=O)/C=C/c1ccccc1)CC3` (stereo not drawn), for which the result was inactive.

`COc1ccc(OC)c(NC2=NCCO2)c1`: the EC50 is above 200 µM and the IC50 amounted to 107 µM.

As for `CC12C=NNC1(C)C(=O)C1(C)CN=NC1(C)C2=O` (stereo not drawn), the EC50 was above 200 µM and the IC50 is above 200 µM.

For the molecule `Cc1ccc(Cl)c(-c2nc3cc(Cl)c(Cl)cc3[nH]2)c1`, the EC50 is above 60.3 µM and the IC50 was above 60.3 µM.

Take `CC/C(Cl)=N\OC(=O)Nc1ccc(F)c([N+](=O)[O-])c1`: the EC50 was above 200 µM and the concentration for half-maximal inhibition (IC50) was determined as 2.82 µM.

In the case of `c1ccc(CSC(SCc2ccccc2)c2cccc3ccccc23)cc1`, the EC50 was 5.89 µM and the IC50 was above 200 µM.

As for `C[N+]12CCCc3cc(CO)cc(c31)CCC2`, the EC50 is 112 µM and the IC50 turned out to be 603 µM.

With `Cc1ccc(N=Nc2c(C)nn(-c3ccccc3)c2C)c(Br)c1`, the outcome was inactive.

Take `C[C@]12C[C@H](c3ccccc3)Nc3ccccc3N1C(c1ccccc1)=NO2`: the EC50 was above 200 µM and the 50% inhibitory concentration (IC50) was 36.3 µM.
